Measured values as given in ChEMBL document CHEMBL1201862, “PubChem BioAssay data set” (2004).
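A five-concentration, 48-hour dose response in 96-well plates underlies each endpoint, interpolated linearly between surrounding concentrations. The concentration for 50% growth inhibition is given as GI50.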 Activity calls are given as the source filed them. No stated cut-off is given here; in the data, active = GI50 up to about 1.1 µM and inactive = higher.

Assays:
Test in all cases: DTP human tumour cell line panel, 48 h
[1] = system: DU-145
[2] = system: COLO 205
[3] = system: LOX IMVI
[4] = system: SN12C
[5] = system: UACC-257
[6] = system: OVCAR-4
[7] = system: M14
[8] = system: NCI/ADR-RES
[9] = system: SF-539
[10] = system: NCI-H460
[11] = system: SK-OV-3
[12] = system: SW-620
[13] = system: MDA-MB-435
[14] = system: U-251
[15] = system: SNB-75
[16] = system: TK-10
[17] = system: SK-MEL-5
[18] = system: K562

CC1=C(C(=O)NNC(=O)CC#N)CC(C(=O)NNC(=O)CC#N)=C(C)N1
GI50 [1]: > 100 µM (inactive) | GI50 [2]: > 100 µM (inactive) | GI50 [3]: > 100 µM (inactive) | GI50 [4]: > 100 µM (inactive) | GI50 [5]: > 100 µM (inactive) | GI50 [6]: > 100 µM (inactive) | GI50 [7]: > 100 µM (inactive) | GI50 [8]: > 100 µM (inactive) | GI50 [9]: > 100 µM (inactive) | GI50 [10]: > 100 µM (inactive) | GI50 [11]: > 100 µM (inactive) | GI50 [12]: > 100 µM (inactive) | GI50 [13]: > 100 µM (inactive) | GI50 [14]: > 100 µM (inactive) | GI50 [15]: > 100 µM (inactive) | GI50 [16]: > 100 µM (inactive) | GI50 [17]: > 100 µM (inactive)

O=C1OC[C@@H]2Cc3cc4c(cc3[C@H](c3ccc5c(c3)OCO5)[C@@H]12)OCO4
GI50 [1]: > 25 µM (inactive) | GI50 [2]: > 25 µM (inactive) | GI50 [3]: > 25 µM (inactive) | GI50 [4]: 21.9 µM (inactive) | GI50 [5]: > 25 µM (inactive) | GI50 [6]: 13.9 µM (inactive) | GI50 [7]: > 25 µM (inactive) | GI50 [8]: 9.33 µM (inactive) | GI50 [10]: > 25 µM (inactive) | GI50 [18]: 12 µM (inactive) | GI50 [13]: 13.3 µM (inactive) | GI50 [14]: > 25 µM (inactive) | GI50 [16]: > 25 µM (inactive) | GI50 [17]: 16 µM (inactive)

Cc1c(C(=O)CC(=O)C(=O)Nc2c(C(C)C)cccc2C(C)C)[n+]([O-])c2ccccc2[n+]1[O-]
GI50 [2]: 3.76 µM (inactive) | GI50 [3]: 3.4 µM (inactive) | GI50 [4]: 3.15 µM (inactive) | GI50 [5]: 3.36 µM (inactive) | GI50 [6]: 3.48 µM (inactive) | GI50 [7]: 3.4 µM (inactive) | GI50 [9]: 4.43 µM (inactive) | GI50 [10]: 2.62 µM (inactive) | GI50 [11]: 16.7 µM (inactive) | GI50 [12]: 3.87 µM (inactive) | GI50 [18]: 6.12 µM (inactive) | GI50 [14]: 3.09 µM (inactive) | GI50 [15]: 14.4 µM (inactive) | GI50 [16]: 26.1 µM (inactive) | GI50 [17]: 10.4 µM (inactive)

CC(C(=O)c1ccc(Cl)cc1)C1OC(=O)C(Cl)=C1Cl (stereo unspecified)
GI50 [2]: 23.9 µM (inactive) | GI50 [3]: 24.3 µM (inactive) | GI50 [4]: 24.6 µM (inactive) | GI50 [5]: 35.6 µM (inactive) | GI50 [6]: 25.7 µM (inactive) | GI50 [7]: 34.1 µM (inactive) | GI50 [9]: 27.6 µM (inactive) | GI50 [10]: > 100 µM (inactive) | GI50 [11]: > 100 µM (inactive) | GI50 [12]: 34.5 µM (inactive) | GI50 [18]: 25.2 µM (inactive) | GI50 [14]: > 100 µM (inactive) | GI50 [15]: 22.1 µM (inactive) | GI50 [16]: 37.2 µM (inactive) | GI50 [17]: 37.9 µM (inactive)

O=C1/C(=C/c2ccccc2)CNC/C1=C\c1ccccc1
GI50 [2]: 1.58 µM (inactive) | GI50 [3]: 0.643 µM (active) | GI50 [4]: 1.69 µM (inactive) | GI50 [5]: 5.51 µM (inactive) | GI50 [6]: 1.43 µM (inactive) | GI50 [7]: 1.81 µM (inactive) | GI50 [9]: 1.56 µM (inactive) | GI50 [10]: 1.36 µM (inactive) | GI50 [11]: 2.22 µM (inactive) | GI50 [12]: 0.441 µM (active) | GI50 [18]: 0.52 µM (active) | GI50 [14]: 0.36 µM (active) | GI50 [15]: 3.38 µM (inactive) | GI50 [16]: 2.4 µM (inactive) | GI50 [17]: 1.91 µM (inactive)

[O-][S+]1Nc2c(Cl)cc(Cl)c(Cl)c2S1 (stereo unspecified)
GI50 [2]: > 100 µM (inactive) | GI50 [3]: 78.9 µM (inactive) | GI50 [4]: > 100 µM (inactive) | GI50 [5]: > 100 µM (inactive) | GI50 [6]: > 100 µM (inactive) | GI50 [7]: > 100 µM (inactive) | GI50 [9]: > 100 µM (inactive) | GI50 [10]: > 100 µM (inactive) | GI50 [11]: > 100 µM (inactive) | GI50 [12]: 5.62 µM (inactive) | GI50 [18]: 74.3 µM (inactive) | GI50 [14]: 38.6 µM (inactive) | GI50 [15]: 22.7 µM (inactive) | GI50 [16]: > 100 µM (inactive) | GI50 [17]: 70.6 µM (inactive)

COCNC(=NC#N)NCOC
GI50 [2]: > 53.5 µM (inactive) | GI50 [3]: > 41.7 µM (inactive) | GI50 [4]: > 100 µM (inactive) | GI50 [5]: > 100 µM (inactive) | GI50 [6]: > 100 µM (inactive) | GI50 [7]: > 100 µM (inactive) | GI50 [9]: > 100 µM (inactive) | GI50 [10]: > 100 µM (inactive) | GI50 [11]: > 100 µM (inactive) | GI50 [12]: > 42.9 µM (inactive) | GI50 [18]: > 64.6 µM (inactive) | GI50 [14]: > 58.5 µM (inactive) | GI50 [15]: > 100 µM (inactive) | GI50 [16]: > 100 µM (inactive) | GI50 [17]: > 100 µM (inactive)
